Experimental data reported in patent US20080121012A1, “Electrode Calibration” (priority 2004, published 2008).

Assays:
[1] = cited from earlier work
[2] = Detection of CO release using the myoglobin assay (conversion of deoxy-Mb to MbCO); format: physicochemical
Experimental: The release of CO from CORM-A1 (Na2[H3BCOO]) was assessed spectrophotometrically by measuring the conversion of deoxymyoglobin (deoxy-Mb) to carbonmonoxy myoglobin (MbCO) in a manner previously reported (refs. 3, 4, 5). A small aliquot of CORM-A1 (60 μM final concentration) was added to 1 ml deoxy-Mb (≈53 μM) in phosphate buffer and changes in the Mb spectra were recorded over time. The amount of MbCO formed was quantified by measuring the absorbance at 540 nm (extinction coefficient=[…]). In order to examine the effect of pH on the rate of CO liberation from CORM-A1, experiments were conducted using solutions of myoglobin in 0.04 M phosphate buffer prepared at different pHs (7.4, 7.0, 6.5 and 5.5). The amount of MbCO formed was plotted over time and the half-life of CORM-A1 at different pHs and temperatures was calculated from the fitted curves.
The conversion of deoxy-Mb to MbCO can be followed over time by measuring the changes in the absorption spectra of this protein. […] The Mb appears to be fully saturated 2 h after addition of CORM-A1 (see curve with filled diamonds in FIG. 1A). […] Specifically, from the fitted curves shown in FIG. 2A we can calculate that the half-lives of CORM-A1 at 37° C. are as follows: 21 min at pH=7.4; 7.1 min at pH=7.0; 3.3 min at pH=6.5; and 2.5 min at pH=5.5.

[3] = Detection of CO release using an amperometric CO sensor; format: physicochemical; conditions: 20 μM; for dissociation rate constant of CO / half-life: 37° C.
Description: The release of CO from CORM-A1 was also detected using a prototype electrode purchased from World Precision Instrument (Stevenage, Herts, UK). This CO electrode is a membrane-covered amperometric sensor which has been designed on a basic operating principle similar to the nitric oxide (NO) sensor (ISO-NOP series, World Precision Instruments). The CO sensor can be connected to the ISO-NO Mark II meter for detection of the current signals providing that the poise potential is set to a different value (900 mV for CO as opposed to 860 mV for NO). In principle, CO diffuses through the gas permeable membrane and is then oxidized to CO2 on the working electrode. This oxidation creates a current whose magnitude can be related directly to the concentration of CO in solution. The CO sensor was used to generate standard curves and calculate the rates of CO release from CORM-A1 at different pHs and temperatures. The electrode was immersed into the solutions at different pHs and equilibrated for 30 min prior to addition of CORM-A1. For the experiments conducted at 37, 30, 25 and 20° C., the solutions were maintained at the desired temperature using a Grant W6 thermostat (Cambridge, England).
CORM-A1 was also tested for its ability to liberate CO using an amperometric electrode sensitive to CO. […] A standard curve generated at pH=5.5 using CORM-A1 in a range between 10 and 50 μM indicated a good linear correlation (R^2=0.998) between the concentrations used and the electrode response (FIG. 3B). Therefore, a concentration of 20 μM CORM-A1 was then used to calculate the rate of CO dissociation from CORM-A1 at different pHs and temperatures. […] Specifically, from the curves shown in FIG. 3D, we can calculate that the initial rate of CO release at pH=5.5 is 6.84 μM/min at 37° C., 3.83 μM/min at 30° C., 2.16 μM/min at 25° C. and 1.22 μM/min at 20° C. Thus, the spontaneous liberation of CO from CORM-A1 in aqueous solutions is both pH- and temperature-dependent.

Row | Molecule | solubility [1] | time until Mb is fully saturated with CO ([2]; 60 μM, 37° C., pH=7.4) [h] | mole of CO formed per mole of compound ([2]; pH=5.5, standard curve) | dissociation rate constant of CO ([3]; pH=4.0) [s⁻¹] | dissociation rate constant of CO ([3]; pH=5.5) [s⁻¹] | half-life ([3]; pH=5.5) [min] | dissociation rate constant of CO ([3]; pH=7.4) [s⁻¹] | half-life ([3]; pH=7.4) [min] | initial rate of CO release ([3]; pH=5.5, 20° C.) [µM/min] | initial rate of CO release ([3]; pH=5.5, 25° C.) [µM/min] | initial rate of CO release ([3]; pH=5.5, 30° C.) [µM/min] | initial rate of CO release ([3]; pH=5.5, 37° C.) [µM/min]
1 | [C-]#[O+].[C-]#[O+].[C-]#[O+].[C-]#[O+].[C-]#[O+].[C-]#[O+].[Cl][Ru][Cl].[Cl][Ru][Cl] [CORM-2, tricarbonyldichlororuthenium(II) dimer] | soluble only in organic solvents |  |  |  |  |  |  |  |  |  |  | 
2 | [C-]#[O+].[C-]#[O+].[C-]#[O+].[C-]#[O+].[C-]#[O+].[C-]#[O+].[C-]#[O+].[C-]#[O+].[C-]#[O+].[C-]#[O+].[Mn].[Mn] [CORM-1, manganese decacarbonyl] | soluble only in organic solvents |  |  |  |  |  |  |  |  |  |  | 
3 | sodium boranocarbonate [CORM-A1] |  | 2 | one | 0.011 | 0.0058 | 1.96 | 0.00055 | 21.06 | 1.22 | 2.16 | 3.83 | 6.84
